These results are taken from ChEMBL document CHEMBL1156320, “Discovery of novel (S)-alpha-phenyl-gamma-amino butanamide containing CCR5 antagonists via functionality inversion approach” (Bioorg Med Chem Lett, 2010).

Holding throughout (assay type): functional, cell-based
Assay [1] has as its target T1, C-C chemokine receptor type 5 (Homo sapiens, UniProt P51681). The experiment in a line: Antagonist activity at CCR5 receptor expressed in CHO cells assessed as inhibition of RANTES-induced […]GTPgammaS binding at 300 nM.
Target sequence in this assay (P51681 whole entry, looked up): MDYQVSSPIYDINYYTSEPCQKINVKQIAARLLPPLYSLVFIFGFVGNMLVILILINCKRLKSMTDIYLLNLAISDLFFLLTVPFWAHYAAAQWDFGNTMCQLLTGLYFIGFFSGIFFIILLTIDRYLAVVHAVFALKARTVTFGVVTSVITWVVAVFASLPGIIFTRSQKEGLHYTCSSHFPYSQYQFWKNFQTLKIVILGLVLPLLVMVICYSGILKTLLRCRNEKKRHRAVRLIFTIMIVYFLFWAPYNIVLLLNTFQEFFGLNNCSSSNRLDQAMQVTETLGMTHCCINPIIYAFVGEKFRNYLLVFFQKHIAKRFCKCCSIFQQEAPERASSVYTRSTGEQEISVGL
The target in assay [2] is T1, C-C chemokine receptor type 5. Briefly: Antagonist activity at CCR5 receptor expressed in CHO cells assessed as inhibition of RANTES-induced […]GTPgammaS binding.
For assay [3] the target is unchanged. The experiment in a line: Antagonist activity at CCR5 receptor expressed in CHO cells assessed as inhibition of RANTES-induced […]GTPgammaS binding at 10 uM.
Target sequence in this assay (P51681 whole entry, looked up): as above

The source made the active and inactive calls. No cut-off for these calls is given here.

Turning to `COC(=O)[C@@H](CCN1[C@@H]2CC[C@H]1C[C@@H](n1c(C)nc3cccnc31)C2)c1ccccc1`, in assay [1], the inhibition came to 22%. The half-inhibitory concentration (IC50) in assay [2] turned out to be 0.112 µM. The corresponding values for `Cc1nc2cccnc2n1[C@H]1C[C@H]2CC[C@@H](C1)N2CC[C@H](C(=O)NCc1ccc(F)cc1)c1ccccc1` are 30% and 0.0144 µM.

Consider `COC(=O)[C@@H](CCN1[C@@H]2CC[C@H]1C[C@H](n1nnc3cccnc31)C2)c1ccccc1`, for which the C50 in assay [2] was more than 10 µM.

For `Cc1nc2cccnc2n1[C@@H]1C[C@H]2CC[C@@H](C1)N2CC[C@H](CO)c1ccccc1`, the inhibition result in assay [3] was “inactive”.

Take `Cc1nc2cccnc2n1[C@@H]1C[C@H]2CC[C@@H](C1)N2CC[C@H](COCc1ccc(F)cc1)c1ccccc1`: in assay [1], the inhibition is 42%.

On to `O=C(NCc1ccc(F)cc1)[C@@H](CCN1[C@@H]2CC[C@H]1C[C@H](n1nnc3cccnc31)C2)c1ccccc1`, for which, in assay [1], the inhibition came out at 1%. Consider `Cc1nc2cccnc2n1[C@H]1C[C@H]2CC[C@@H](C1)N2CC[C@H](C(=O)N1C(=O)OC[C@H]1Cc1ccccc1)c1ccccc1` (stereo in doubt; 1b), for which the inhibition in assay [1] came to 10%. Same read-out and setting: to `Cc1nc2cccnc2n1[C@@H]1C[C@H]2CC[C@@H](C1)N2CC[C@H](C(=O)OCc1ccc(F)cc1)c1ccccc1` belongs 19%; to `Cc1nc2cccnc2n1[C@H]1C[C@H]2CC[C@@H](C1)N2CC[C@H](C(=O)N1C(=O)OC[C@H]1Cc1ccccc1)c1ccccc1` (stereo in doubt; 1a), 30%.
